Our source for the mutagenic call values is PubChem BioAssay AID1259407 (Chemical Carcinogenesis Research Information System (CCRIS), 2018).

The test system of this data set is CCRIS mutagenicity, Ames/micronucleus/aberration tests. The data set is described as follows: CCRIS mutagenicity studies.
Where [1] appears, read: Test System: AMES SALMONELLA TYPHIMURIUM, Strain/Indicator: TA98, Metabolic Activation: NONE, Method: STANDARD PLATE.
Setting [2] is: Test System: AMES SALMONELLA TYPHIMURIUM, Strain/Indicator: TA98, Metabolic Activation: RAT, LIVER, S-9, AROCLOR 1254, Method: STANDARD PLATE.
Setting [3] is: Test System: AMES SALMONELLA TYPHIMURIUM, Strain/Indicator: TA100, Metabolic Activation: NONE, Method: STANDARD PLATE.
Where [4] appears, read: Test System: AMES SALMONELLA TYPHIMURIUM, Strain/Indicator: TA100, Metabolic Activation: RAT, LIVER, S-9, AROCLOR 1254, Method: STANDARD PLATE.
Setting [5] is: Test System: AMES SALMONELLA TYPHIMURIUM, Strain/Indicator: TA98, Metabolic Activation: NONE, Method: PREINCUBATION
Setting [6] is: Test System: AMES SALMONELLA TYPHIMURIUM, Strain/Indicator: TA1535, Metabolic Activation: NONE, Method: STANDARD PLATE.
[7] abbreviates: Test System: AMES SALMONELLA TYPHIMURIUM, Strain/Indicator: TA100, Metabolic Activation: NONE, Method: PREINCUBATION

Each structure is given as a SMILES string. The source made the active and inactive calls. The rule behind the calls is not given here.

For `O=c1[nH]cc2ccc3cccc4ccc1c2c34`, the mutagenic call was “inactive; negative” under setting [1], “inactive; negative” under setting [2], “inactive; negative” under setting [3] and “inactive; negative” under setting [4].

For the compound `CC1(C)CC[C@]2(C(=O)O)CC[C@]3(C)C(=CC[C@@H]4[C@@]5(C)C[C@H](O)[C@H](O[C@@H]6O[C@H](CO)[C@@H](O)[C@H](O)[C@H]6O)C(C)(C(=O)O)C5CC[C@]43C)[C@H]2C1` (stereo partly drawn), the mutagenic call (Test System: AMES SALMONELLA TYPHIMURIUM, Strain/Indicator: TA97, Metabolic Activation: NONE, Method: STANDARD PLATE) was “inactive; negative”; the mutagenic call (Test System: AMES SALMONELLA TYPHIMURIUM, Strain/Indicator: TA97, Metabolic Activation: RAT, LIVER, S-9, AROCLOR 1254, Method: STANDARD PLATE) is “inactive; negative”; the mutagenic call under setting [1] was “inactive; negative”; the mutagenic call under setting [2] was “inactive; negative”; the mutagenic call under setting [3] was “inactive; negative”; the mutagenic call under setting [4] is “inactive; negative”. Besides, the mutagenic call runs as follows: (Test System: AMES SALMONELLA TYPHIMURIUM, Strain/Indicator: TA102, Metabolic Activation: NONE, Method: STANDARD PLATE) “inactive; negative”; (Test System: AMES SALMONELLA TYPHIMURIUM, Strain/Indicator: TA102, Metabolic Activation: RAT, LIVER, S-9, AROCLOR 1254, Method: STANDARD PLATE) “inactive; negative”.

`O=C(O)C1CCCN1` (stereo not drawn): for the setting “Test System: AMES SALMONELLA TYPHIMURIUM, Strain/Indicator: TA98, Metabolic Activation: RAT LIVER S-9, CHLOROPHENE, Method: STANDARD PLATE (COMPOUND HEATED AT 250 DEGREES CELSIUS FOR 20 MIN)”, the mutagenic call was “active; positive”.

On to `Nc1ccc(-c2ccc(N)cc2[N+](=O)[O-])c([N+](=O)[O-])c1`, for which the mutagenic call is, setting by setting: under setting [5], “active; positive”; (Test System: AMES SALMONELLA TYPHIMURIUM, Strain/Indicator: TA98, Metabolic Activation: RAT, LIVER, S-9, KANECHLOR 500, Method: PREINCUBATION) “active; positive”.

For the compound `N1=NC2[C@@H]3O[C@@H]3C1[C@H]1O[C@@H]21`, the mutagenic call was “inactive; negative” under setting [1]; “inactive; negative” (Test System: AMES SALMONELLA TYPHIMURIUM, Strain/Indicator: TA98, Metabolic Activation: RAT, LIVER, S-9, PHENOBARBITAL, Method: STANDARD PLATE); “inactive; negative” under setting [3]; “inactive; negative” (Test System: AMES SALMONELLA TYPHIMURIUM, Strain/Indicator: TA100, Metabolic Activation: RAT, LIVER, S-9, PHENOBARBITAL, Method: STANDARD PLATE); “inactive; negative” (Test System: AMES SALMONELLA TYPHIMURIUM, Strain/Indicator: TM677/8-AZAGUANINE, Metabolic Activation: NONE, Method: STANDARD PLATE).

For the compound `O=C1NC(=O)C(C(Cl)Cl)=C1Cl`, under setting [3], the mutagenic call is “active; positive”.

For the compound `Clc1cc2c3ccccc3ccc2c2ccccc12`, the mutagenic call was “inactive; negative” under setting [2] and “active; positive” under setting [4].

On to `O=C(NC(=O)c1c(F)cccc1F)Nc1cc(Cl)c(Oc2ncc(C(F)(F)F)cc2Cl)c(Cl)c1`, for which the mutagenic call was “inactive; negative” under setting [1]; “inactive; negative” under setting [2]; “inactive; negative” under setting [3]; “inactive; negative” under setting [4]; “inactive; negative” under setting [6]; “inactive; negative” (Test System: AMES SALMONELLA TYPHIMURIUM, Strain/Indicator: TA1535, Metabolic Activation: RAT, LIVER, S-9, AROCLOR 1254, Method: STANDARD PLATE). The mutagenic call is “inactive; negative” (Test System: AMES SALMONELLA TYPHIMURIUM, Strain/Indicator: TA1537, Metabolic Activation: NONE, Method: STANDARD PLATE); “inactive; negative” (Test System: AMES SALMONELLA TYPHIMURIUM, Strain/Indicator: TA1537, Metabolic Activation: RAT, LIVER, S-9, AROCLOR 1254, Method: STANDARD PLATE); “inactive; negative” (Test System: AMES SALMONELLA TYPHIMURIUM, Strain/Indicator: TA1538, Metabolic Activation: NONE, Method: STANDARD PLATE); “inactive; negative” (Test System: AMES SALMONELLA TYPHIMURIUM, Strain/Indicator: TA1538, Metabolic Activation: RAT, LIVER, S-9, AROCLOR 1254, Method: STANDARD PLATE).

In the case of `O=CC(=O)c1ccccc1`, the mutagenic call reads like this: (Test System: AMES SALMONELLA TYPHIMURIUM, Strain/Indicator: TA98, Metabolic Activation: HAMSTER, LIVER, S-9, AROCLOR 1254, Method: STANDARD PLATE) “active; positive”; under setting [5], “inactive; negative”; under setting [1], “active; positive”; under setting [2], “active; positive”; (Test System: AMES SALMONELLA TYPHIMURIUM, Strain/Indicator: TA98, Metabolic Activation: RAT, LIVER, S-9, PCB, Method: PREINCUBATION) “inactive; negative”; (Test System: AMES SALMONELLA TYPHIMURIUM, Strain/Indicator: TA100, Metabolic Activation: HAMSTER, LIVER, S-9, AROCLOR 1254, Method: STANDARD PLATE) “active; positive”. The mutagenic call was “active; positive” under setting [7]; “active; positive” under setting [3]; “active; positive” under setting [4]; “inactive; negative” (Test System: AMES SALMONELLA TYPHIMURIUM, Strain/Indicator: TA100, Metabolic Activation: RAT, LIVER, S-9, PCB, Method: PREINCUBATION); “active; positive” (Test System: MOUSE LYMPHOMA, Strain/Indicator: L5178Y (TK+/TK-), Metabolic Activation: NONE, Method: SUSPENSION/PLATE); “active; positive” (Test System: Mouse lymphoma, Strain/Indicator: L5178Y (tk+/tk-), Metabolic Activation: None, Method: Suspension/plate). Further, the mutagenic call (Test System: Mouse lymphoma, Strain/Indicator: L5178Y (tk+/tk-), Metabolic Activation: Rat, Liver, S-9, Aroclor 1254, Method: Suspension/plate) was “inactive; negative”.

With `Nc1ccc(-c2cc([N+](=O)[O-])c(N)c(Cl)c2Cl)cc1`, the mutagenic call by setting is: (Test System: Ames Salmonella typhimurium, Strain/Indicator: TA98, Metabolic Activation: None, Method: Preincubation) “active; positive. weak response”; (Test System: Ames Salmonella typhimurium, Strain/Indicator: TA98, Metabolic Activation: Rat, Liver, S-9, Phenobarbital and 5,6-benzoflavone, Method: Preincubation) “active; positive”; (Test System: Ames Salmonella typhimurium, Strain/Indicator: TA100, Metabolic Activation: None, Method: Preincubation) “inactive; negative”; (Test System: Ames Salmonella typhimurium, Strain/Indicator: TA100, Metabolic Activation: Rat, Liver, S-9, Phenobarbital and 5,6-benzoflavone, Method: Preincubation) “active; positive”; (Test System: Ames Salmonella typhimurium, Strain/Indicator: YG1024, Metabolic Activation: None, Method: Preincubation) “active; positive”; (Test System: Ames Salmonella typhimurium, Strain/Indicator: YG1024, Metabolic Activation: Rat, Liver, S-9, Phenobarbital and 5,6-benzoflavone, Method: Preincubation) “active; positive”. Further, the mutagenic call (Test System: Ames Salmonella typhimurium, Strain/Indicator: YG1029, Metabolic Activation: None, Method: Preincubation) is “inactive; negative”; the mutagenic call (Test System: Ames Salmonella typhimurium, Strain/Indicator: YG1029, Metabolic Activation: Rat, Liver, S-9, Phenobarbital and 5,6-benzoflavone, Method: Preincubation) was “active; positive”.

`O=C(N=c1sn(C(=O)c2ccc([N+](=O)[O-])cc2)c2ccc(Cl)cc12)c1ccc([N+](=O)[O-])cc1`: the mutagenic call (Test System: AMES SALMONELLA TYPHIMURIUM, Strain/Indicator: TA100, Metabolic Activation: S-9, Method: STANDARD PLATE) was “active; positive”.

With `c1ccc(Cc2ccc(CC3CO3)cc2)cc1` (stereo not drawn), the mutagenic call runs as follows: under setting [7], “inactive; negative”; under setting [3], “active; positive”; (Test System: AMES SALMONELLA TYPHIMURIUM, Strain/Indicator: TA1535, Metabolic Activation: NONE, Method: PREINCUBATION) “inactive; negative”; under setting [6], “active; positive”.

Take `O=NC1=Cc2nc3ccccn3c2NC1`: the mutagenic call is, setting by setting: under setting [1], “active; positive”; (Test System: AMES SALMONELLA TYPHIMURIUM, Strain/Indicator: TA98, Metabolic Activation: RAT, LIVER, CYTOSOL, AROCLOR 1254, Method: STANDARD PLATE) “active; positive”; (Test System: AMES SALMONELLA TYPHIMURIUM, Strain/Indicator: TA98, Metabolic Activation: RAT, LIVER, MICROSOMES, AROCLOR 1254, Method: STANDARD PLATE) “inactive; negative”; under setting [2], “active; positive”.
